In patent EP4810040A2, “INHIBITORS OF APOL1 AND METHODS OF USING SAME” (priority 2020, dated 2022):

Target: T1, APOL1 G1 (Homo sapiens, UniProt O14791, I384M/S342G)
T1 sequence (O14791 28-398 S342G/I384M): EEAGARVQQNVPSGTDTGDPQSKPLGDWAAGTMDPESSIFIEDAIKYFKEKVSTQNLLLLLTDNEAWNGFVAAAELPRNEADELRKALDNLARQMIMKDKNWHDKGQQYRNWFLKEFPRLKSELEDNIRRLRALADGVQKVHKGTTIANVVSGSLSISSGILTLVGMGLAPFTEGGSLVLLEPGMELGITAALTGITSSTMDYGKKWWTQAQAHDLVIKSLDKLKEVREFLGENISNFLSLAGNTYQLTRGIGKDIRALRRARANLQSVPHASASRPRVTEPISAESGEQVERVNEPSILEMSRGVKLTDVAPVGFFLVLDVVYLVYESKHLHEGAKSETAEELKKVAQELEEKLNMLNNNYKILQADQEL
Experiment: MultiTox-Fluor Multiplex Cytotoxicity Assay, tet-inducible APOL1 G1 T-REx-HEK293 cells
Assay type: cell-based
Set-up: expressed in transfected cells; host or cells: T-REx HEK293, clone G1 DC3.25 (pAAVS1-Puro-APOL1 G1)
Settings: for IC90: HEK293, Multi-Tox Assay, APOL1 variant (G0/G1/G2) of the HEK293 cells not given, read-out: Multi-Tox Assay IC90; for Emax / Multi-Tox Assay Max Activity (%): Multi-Tox Assay, APOL1 variant not given; for Emax: read-out: Multi-Tox Assay Max Activity (%)
Protocol: The MultiTox-Fluor Multiplex Cytotoxicity Assay is a single-reagent-addition, homogeneous, fluorescence assay that measures the number of live and dead cells simultaneously in culture wells. The assay measures cell viability and cytotoxicity by detecting two distinct protease activities. The live-cell protease activity is restricted to intact viable cells and is measured using a fluorogenic, cell-permeant peptide glycyl-phenylalanylamino fluorocoumarin (GF-AFC) substrate. The substrate enters intact cells, where it is cleaved to generate a fluorescent signal proportional to the number of living cells. […] A second, cell-impermeant, fluorogenic peptide substrate (bis-AAF-R110 Substrate) is used to measure dead-cell protease that has been released from cells that have lost membrane integrity. A ratio of dead to live cells is used to normalize data.
Briefly, the tet-inducible transgenic APOL1 T-REx-HEK293 cell lines were incubated with 50 ng/mL tet to induce APOL1 in the presence of 3-(2-(4-fluorophenyl)-1H-indol-3-yl)-N-((3S,4R)-4-hydroxy-2-oxopyrrolidin-3-yl)propenamide at […], 0.0045, 0.0015, 0.0005 µM in duplicate for 24 hours in a humidified 37°C incubator. The MultiTox reagent was added to each well and placed back in the incubator for an additional 30 minutes. The plate was read on the EnVision plate reader. A ratio of dead to live cells was used to normalize, and data was imported, analyzed and fit using Genedata Screener (Basel, Switzerland) software. Data was normalized using percent of control, no tet (100% viability), and 50 ng/mL tet treated (0% viability),and fit using Smart Fit. The reagents, methods, and complete protocol for the MultiTox assay are described below. Table 42. Reagents Used in the Multi-Tox Assay
Human embryonic kidney (HEK293) cell lines containing a tet-inducible expression system (T-REx™; Invitrogen, Carlsbad, CA) and Adeno-associated virus site 1 pAA VS1-Puro-APOL1 G0 or pAAVS1-Puro-APOL1 G1 or pAAVS1-Puro-APOL1 G2 Clones G0 DC2.13, G1 DC3.25, and G2 DC4.44 were grown in a T-225 flask at ~90% confluency in cell growth media (DMEM, 10% Tet-free FBS, 2 mM L-glutamine, 100 Units/mL penicillin-streptomycin, 5 µg/mL blasticidin S HCl, 1 µg/mL puromycin dihydrochloride). Cells were washed with DPBS and then trypsinized to dissociate from the flask. Media was used to quench the trypsin, cells were then pelleted at 200g and resuspended in fresh cell assay media (DMEM, 2% Tet-free FBS, 2 mM L-glutamine, 100 Units/mL penicillin-streptomycin). Cells were counted and diluted to 1.17 x 10^6 cells/mL. 20 µL of cells (23,400/well) were dispensed to every well of a 384-well Poly-D-Lysine coated plate using the Multidrop dispenser. The plates were then incubated at room temperature for one hour.
Tetracycline is needed to induce APOL1 expression. 1 mg/mL tet stock in water was diluted to 250 ng/mL (5X) in cell assay media. 60 µL of cell assay media (no tet control) was dispensed in columns 1 and 24, and 60 µL of 5X tet was dispensed in 384-PP-round bottom plate in columns 2 to 23 with the Multidrop dispenser.
Assay ready plates from the Global Compound Archive were ordered using template 384_APOL1Cell_DR10n2_50uM_v3. Compounds were dispensed at 200 nL in DMSO. The final top concentration was 10 µM with a 10 point 3-fold dilution in duplicate in the MultiTox assay.
20 µL were transferred from the 5X tet plate to the ARP and mixed, then 5 µL of 5X tet and the compounds were transferred to the cell plate and mixed using the Bravo. The cell plate was placed in the humidified 37°C 5% CO2 incubator for 24 hours.
The MultiTox-Fluor Multiplex Cytotoxicity Assay was performed in accordance with the manufacturer's protocol. […]

SMILES	IC90	Emax	Multi-Tox Assay Max Activity (%)
C[C@H]1C[C@@]2(C[C@@H](c3c[nH]nn3)N1)OCCc1cc(Cl)sc12 (racemic) [Compound 72]	< 50 nM	99.7%	–
Cc1cc([C@@H]2C[C@]3(C[C@H](C)N2)OCCc2cc(Cl)sc23)[nH]n1 (racemic) [Compound 73]	< 50 nM	99.8%	–
C[C@H]1C[C@@]2(C[C@@H](c3cn4c(n3)COCC4)N1)OCCc1cc(Cl)sc12 (racemic) [Compound 74]	< 50 nM	99.2%	–
C[C@H]1C[C@@]2(C[C@@H](c3cnc(N(C)C)nc3)N1)OCCc1cc(Cl)sc12 (racemic) [Compound 75]	< 50 nM	100%	–
Cc1ccc([C@@H]2C[C@]3(C[C@H](C)N2)OCCc2cc(Cl)sc23)nc1 (racemic) [Compound 77]	< 50 nM	99%	–
C[C@H]1C[C@@]2(C[C@@H](c3ccc(S(N)(=O)=O)cc3F)N1)OCCc1cc(Cl)sc12 (racemic) [Compound 78]	< 50 nM	99.7%	–
C[C@H]1C[C@@]2(C[C@@H](c3cocn3)N1)OCCc1cc(Cl)sc12 (racemic) [Compound 79]	50 to 500 nM	99.7%	–
C[C@H]1C[C@@]2(C[C@@H](c3ccc(=O)n(C)c3)N1)OCCc1cc(Cl)sc12 (racemic) [Compound 80]	< 50 nM	99.7%	–
C[C@H]1C[C@@]2(C[C@@H](c3ccccc3)N1)OCCc1cc(Cl)sc12 (racemic) [Compound 81]	< 50 nM	99.7%	–
Cc1ncc([C@@H]2C[C@]3(C[C@H](C)N2)OCCc2cc(Cl)sc23)cn1 (racemic) [Compound 82]	< 50 nM	99.7%	–
C[C@H]1C[C@@]2(C[C@@H](c3ccccn3)N1)OCCc1cc(Cl)sc12 (racemic) [Compound 83]	< 50 nM	99%	–
COc1ccc2[nH]c([C@@H]3C[C@]4(C[C@H](C)N3)OCCc3cc(Cl)sc34)cc2n1 (racemic) [Compound 84]	< 50 nM	99.8%	–
C[C@H]1C[C@@]2(C[C@@H](c3c[nH]cn3)N1)OCCc1cc(Cl)sc12 (racemic) [Compound 85]	< 50 nM	99.3%	–
C[C@H]1C[C@@]2(C[C@@H](c3cc(C4CC4)no3)N1)OCCc1cc(Cl)sc12 (racemic) [Compound 87]	< 50 nM	99.3%	–
C[C@H]1C[C@@]2(C[C@@H](c3ccc(N(C)C)nc3)N1)OCCc1cc(Cl)sc12 (racemic) [Compound 89]	< 50 nM	99.3%	–
COCCn1cc([C@@H]2C[C@]3(C[C@H](C)N2)OCCc2cc(Cl)sc23)cn1 (racemic) [Compound 90]	< 50 nM	100%	–
C[C@H]1C[C@@]2(C[C@@H](c3cccnn3)N1)OCCc1cc(Cl)sc12 (racemic) [Compound 92]	< 50 nM	100%	–
C[C@H]1C[C@@]2(C[C@@H](c3ccnnc3)N1)OCCc1cc(Cl)sc12 (racemic) [Compound 93]	< 50 nM	99.3%	–
Cc1ncc([C@@H]2C[C@]3(C[C@H](C)N2)OCCc2cc(Cl)sc23)o1 (racemic) [Compound 94]	< 50 nM	100%	–
C[C@H]1C[C@@]2(C[C@@H](c3cnc(NC(C)(C)CO)nc3)N1)OCCc1cc(Cl)sc12 (racemic) [Compound 95]	< 50 nM	99.8%	–

SMILES	IC90	Emax	Multi-Tox Assay Max Activity (%)
C[C@H]1C[C@@]2(C[C@@H](c3ccon3)N1)OCCc1cc(Cl)sc12 (racemic) [Compound 96]	< 50 nM	99.8%	–
Cc1cc([C@@H]2C[C@]3(C[C@H](C)N2)OCCc2cc(Cl)sc23)nn1C (racemic) [Compound 98]	< 50 nM	–	–
COc1ccc([C@@H]2C[C@]3(C[C@H](C)N2)OCCc2cc(Cl)sc23)cc1O (racemic) [Compound 99]	< 50 nM	–	–
C[C@H]1C[C@@]2(C[C@@H](c3cnn(C4CCOCC4)c3)N1)OCCc1cc(Cl)sc12 (racemic) [Compound 100]	< 50 nM	–	99.3%
C[C@H]1C[C@@]2(C[C@@H](c3cnccn3)N1)OCCc1cc(Cl)sc12 (racemic) [Compound 101]	< 50 nM	–	100.0%
CCOc1cc([C@@H]2C[C@]3(C[C@H](C)N2)OCCc2cc(Cl)sc23)ccc1O (racemic) [Compound 102]	< 50 nM	–	99.8%
C[C@H]1C[C@@]2(C[C@@H](c3cnn(CC(C)(CO)CO)c3)N1)OCCc1cc(Cl)sc12 (racemic) [Compound 103]	< 50 nM	–	99.6%
Cc1nc([C@@H]2C[C@]3(C[C@H](C)N2)OCCc2cc(Cl)sc23)co1 (racemic) [Compound 104]	50 to 500 nM	–	99.3%
COc1ccccc1-c1ncc([C@@H]2C[C@]3(C[C@H](C)N2)OCCc2cc(Cl)sc23)cn1 (racemic) [Compound 105]	50 to 500 nM	–	99.3%
COCc1cc([C@@H]2C[C@]3(C[C@H](C)N2)OCCc2cc(Cl)sc23)no1 (racemic) [Compound 106]	< 50 nM	–	99.7%
CCOc1ccc([C@@H]2C[C@]3(C[C@H](C)N2)OCCc2cc(Cl)sc23)cc1O (racemic) [Compound 107]	< 50 nM	–	99.7%
Cc1cc([C@@H]2C[C@]3(C[C@H](C)N2)OCCc2cc(Cl)sc23)ccc1O (racemic) [Compound 108]	50 to 500 nM	–	–
C[C@H]1C[C@@]2(C[C@@H](c3cccc(C(N)=O)c3)N1)OCCc1cc(Cl)sc12 (racemic) [Compound 109]	50 to 500 nM	–	100.0%
COc1nccc([C@@H]2C[C@]3(C[C@H](C)N2)OCCc2cc(Cl)sc23)n1 (racemic) [Compound 110]	50 to 500 nM	–	99.2%
CCC(O)Cn1cc([C@@H]2C[C@]3(C[C@H](C)N2)OCCc2cc(Cl)sc23)nn1 (mixture of isomers) [Compound 111]	50 to 500 nM	–	99.3%
C[C@H]1C[C@@]2(C[C@@H](c3ccnc(O)c3)N1)OCCc1cc(Cl)sc12 (racemic) [Compound 112]	< 50 nM	–	100.0%
CC(=O)Nc1cccc([C@@H]2C[C@]3(C[C@H](C)N2)OCCc2cc(Cl)sc23)c1 (racemic) [Compound 113]	50 to 500 nM	–	100.0%
C[C@H]1C[C@@]2(C[C@@H](c3cccc(NS(C)(=O)=O)c3)N1)OCCc1cc(Cl)sc12 (racemic) [Compound 115]	50 to 500 nM	–	99.3%
Cc1nccc([C@@H]2C[C@]3(C[C@H](C)N2)OCCc2cc(Cl)sc23)n1 (racemic) [Compound 116]	50 to 500 nM	–	99.4%
